The results in this text go back to ChEMBL document CHEMBL5233218, “Quinolizidine alkaloids derivatives from Sophora alopecuroides Linn: Bioactivities, structure-activity relationships and preliminary molecular mechanisms” (Eur J Med Chem, 2020).

Usually IC50 stands for the concentration that gives 50% inhibition.

Holding throughout (type): functional, cell-based
Assay [1] deals with LS180. Kind of assay: Cytotoxicity against human LS180 cells assessed as inhibition of cell growth by MTT assay. On the technique in general: Tetrazolium assays rely on reduction of a dye to a coloured formazan, in cell work by metabolically active cells.
For assay [2], the system named is H22. Kind of assay: Cytotoxicity against mouse H22 cells assessed as inhibition of cell growth by MTT assay.
Assay [3] in a line: Antiproliferative activity against rat HSC-T6 cells.
The subject of assay [4] is HepG2. The assay is described as follows: Cytotoxicity against human HepG2 cells assessed as inhibition of cell growth by MTT assay.
Assay [5] has as its system MRC5. Kind of assay: Anti-fibrotic activity in human MRC5 cells assessed as inhibition of TGF-beta1 induced total collagen deposition.

Turning to `COC(=O)CCC[C@@H]1[C@H]2CCCN3CCC[C@@H](CN1P(=O)(Oc1cccc4ccccc14)N(CCCl)CCCl)[C@@H]23` (some centres undefined), the IC50 in assay [1] and in assay [2] was 2100 nM throughout. `CN(C(=O)CN/C=C/c1ccccc1)[C@@H]1CC(=S)N2C[C@@H]3CCCN4CCC[C@@H]([C@H]34)[C@H]2C1` returned an IC50 in assay [3] of 62000 nM. For the compound `O=c1[nH]cc(F)c(=O)[nH]1` [FLUOROURACIL], the IC50 in assay [4] was 8020 nM.

As to `COC(=O)CCC[C@@H]1[C@H]2CCCN3CCC[C@@H](CN1P(=O)(Oc1ccc(F)cc1)N(CCCl)CCCl)[C@@H]23` (some centres undefined), the IC50 in assay [1] and in assay [2] was 2100 nM in each case. Regarding `COC(=O)CCC[C@@H]1[C@H]2CCCN3CCC[C@@H](CN1P(=O)(Oc1ccc4ccccc4c1)N(CCCl)CCCl)[C@@H]23` (some centres undefined), the IC50 in assay [1] and in assay [2] was 2100 nM throughout. With `COC(=O)CCC[C@@H]1[C@H]2CCCN3CCC[C@@H](CN1P(=O)(Oc1ccc(Br)cc1)N(CCCl)CCCl)[C@@H]23` (some centres undefined), the IC50 in assay [1] and in assay [2] was 2100 nM throughout. As for `O=C1CC(n2ccc3cc(Cl)ccc32)C[C@@H]2[C@H]3CCCN4CCC[C@@H](CN12)[C@@H]34` (some centres undefined), in assay [5], the IC50 stood at 3300 nM. For `COC(=O)CCC[C@@H]1[C@H]2CCCN3CCC[C@@H](CN1P(=O)(Oc1cccc(Cl)c1)N(CCCl)CCCl)[C@@H]23` (some centres undefined), the IC50 in assay [1] and in assay [2] was 2100 nM each time. On to `O=C1CCC[C@@H]2[C@H]3CCCN4CCC[C@@H](CN12)[C@@H]34` [MATRINE], for which the IC50 in assay [3] came out at 128000 nM.
